Experimental data published in patent US10336792B2, “Antimicrobial peptide dendrimers” (priority 2014, dated 2019).
Converted amounts (≈) assume the structure as drawn. Positions of bridges follow the written chain, without caps; N, C: chain ends. Non-standard residues stand in square brackets, D forms with d. Residues, ends and D or L forms follow the SMILES beside them. Groups on a side chain read outwards from the residue. Chains are numbered I, II in the order given. *: point of attachment. Decanoyl = CCCCCCCCCC(=O)*; Orn = NCCC[C@H](N)C(=O)O; Dab = NCC[C@H](N)C(=O)O

Key:
male wistar rats = assay: In-vivo toxicity study, single i.v. injection; parameters: species or system rat
[1] = system: Staphylococcus aureus (COL, MRSA reference strain); assay type: cell-based; conditions: COL, reference strain
Experimental: (§1) Antimicrobial activity was assayed against P. aeruginosa PA01 (WT), P. aeruginosa PT1482 (A-), PT1485 (A-B-), PT1149 (A-B-C-algC), PT331 (Z61) (LPS mutants), P. aeruginosa PEJ2.6, PEJ9.1, ZEM1.A, ZEM9.A (clinical isolates from Université de Genève/Centre Médical Universitaire), Burkholderia cenocepacia (B. ceno), Staphylococcus aureus (S. aureus, MRSA strain) and Acinetobacter baumannii (A. baum) (clinical isolates from Université de Genève/Centre Médical Universitaire). To determine the minimal inhibitory concentration (MIC), microdilution broth method was used. A colony of bacteria was grown in MH-medium overnight at 37° C. The samples were prepared as stock solutions of 8 mg mL^−1 in H2O, diluted to the beginning concentration of 32, 64, 128 or 256 μg/mL in 300 μL MH-medium, added to the first well of 96-well microtiterplate (TPP, untreated) and diluted serially by ½. The concentration of the bacteria was quantified by measuring absorbance at 600 nm and diluted to OD600=0.022 in MH-medium. The sample solutions (150 μL) were mixed with 4 μL diluted bacterial suspension with a final inoculation of about of 5×10^5 CFU. The plates were incubated at 37° C. until satisfactory growth (˜18 h). For each test, two columns of the plate were kept for sterility control (SC, broth only) and growth control (GC, broth with bacterial inoculums, no antibiotics). The minimal inhibitory concentration (MIC) was defined as the lowest concentration of the antimicrobial substance (peptide dendrimer) that inhibited visible growth of the tested bacteria with the unaided eye. For microbiological study Polymyxin was used as references.
(§2) Ten of the most promising compounds (FIG. 5) were tested for their efficiency against four clinical isolates of P. aeruginosa (ZEM9.A, ZEM1.A, PEJ2.6, PEJ9.1), one S. aureus (COL, MRSA reference strain) and one A. baumannii strain. For the experiments in Genève the peptide dendrimers and reference compounds (polymyxin) were dissolved in PBS and the assay was carried out in Müller-Hinton (MH) broth with a two-fold dilution.

Acinetobacter baumannii = assay type: cell-based
Experimental: as §1, §2

[2] = system: Escherichia coli (strain DH5α); assay type: cell-based; conditions: DH5α
Method in brief: (§3)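 Broth microdilution MIC in LB; overnight cultures diluted to OD600 0.001 and mixed 1:1 with ⅔-serially diluted samples (stock 1 mg mL^−1 in H2O), 37° C for 18-24 h. MTT (0.1%) added; MIC read by eye as lowest concentration inhibiting visible growth (yellow).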

[3] = system: Bacillus subtilis (strain BR151); assay type: cell-based; conditions: strain BR151
Method in brief: as §3

[4] = system: Pseudomonas aeruginosa (strain PA01); assay: microbe, parasite or virus in culture; assay type: cell-based; conditions: strain
Method in brief: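 P. aeruginosa PAO1 grown overnight in LB, diluted to OD600 0.001 and mixed with ⅔-step peptide dilutions, then incubated at 37 °C for 18–24 h. After MTT staining, the lowest concentration with no visible growth was read by eye as the MIC.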

[5] = system: P. aeruginosa PEJ2.6, PEJ9.1, ZEM1.A, ZEM9.A (clinical isolates); assay type: cell-based, Pseudomonas aeruginosa; conditions: PEJ2.6, PEJ9.1, ZEM1.A, ZEM9.A (clinical isolates)
Experimental: as §1, §2

P. aeruginosa PA01 (WT) = assay type: cell-based, Pseudomonas aeruginosa; conditions: WT
Experimental: as §1

[6] = system: P. aeruginosa PT1482 (A-), PT1485 (A-B-), PT1149 (A-B-C-algC), PT331 (Z61) (LPS mutants); assay type: cell-based, Pseudomonas aeruginosa; conditions: MH medium, 12-18 h
Experimental: as §1

PAO1 = assay type: cell-based, Pseudomonas aeruginosa; conditions: PAO1
Experimental: as §1

For `CC(C)C[C@H](NC(=O)[C@H](CCCCN)NC(=O)[C@H](CCCCNC(=O)[C@H](CC(C)C)NC(=O)[C@H](CCCCN)NC(=O)[C@H](CCCCNC(=O)[C@H](CC(C)C)NC(=O)[C@H](CCCCN)NC(=O)[C@H](CCCCNC(=O)[C@H](CC(C)C)NC(=O)[C@@H](N)CCCCN)NC(=O)[C@H](CC(C)C)NC(=O)[C@@H](N)CCCCN)NC(=O)[C@H](CC(C)C)NC(=O)[C@H](CCCCN)NC(=O)[C@H](CCCCNC(=O)[C@H](CC(C)C)NC(=O)[C@@H](N)CCCCN)NC(=O)[C@H](CC(C)C)NC(=O)[C@@H](N)CCCCN)NC(=O)[C@H](CC(C)C)NC(=O)[C@H](CCCCN)NC(=O)[C@H](CCCCNC(=O)[C@H](CC(C)C)NC(=O)[C@H](CCCCN)NC(=O)[C@H](CCCCNC(=O)[C@H](CC(C)C)NC(=O)[C@@H](N)CCCCN)NC(=O)[C@H](CC(C)C)NC(=O)[C@@H](N)CCCCN)NC(=O)[C@H](CC(C)C)NC(=O)[C@H](CCCCN)NC(=O)[C@H](CCCCNC(=O)[C@H](CC(C)C)NC(=O)[C@@H](N)CCCCN)NC(=O)[C@H](CC(C)C)NC(=O)[C@@H](N)CCCCN)C(N)=O` [MSt-112, (KL)8(KKL)4(KKL)2(KKL)] (I: H-KLK([Leu-Lys])KLKKLKKL-NH2 / II: H-KLK([Leu-Lys])KLKKL / III: H-KLK([Leu-Lys])KL / IV: H-KLK([Leu-Lys])KL; amide I:6-IV:C, I:9-II:C, II:6-III:C), the “visible effects and behaviour after injection” value (male wistar rats; 2 mg/kg single i.v. dose into tail vein, two rats) was “No visible effect”, the survival rate (male wistar rats; 2 mg/kg single i.v. dose, monitored 2 days) was 100% and the “MIC S. aureus COL” value [1] was >64 µg/mL. For the same compound, the “MIC A. baumannii ATCC19606” value (Acinetobacter baumannii) was 8 to 16 µg/mL, the “MIC E. coli DH5α” value [2] was 4 µg/mL (≈ 0.882 µM) and the “MIC B. subtilis BR151” value [3] was 3 µg/mL (≈ 0.662 µM). For the same compound, the “MIC P. aeruginosa PAO1” value [4] was 2 µg/mL (≈ 0.441 µM), the “MIC P. aeruginosa MDR clinical isolate PEJ2.6” value [5] was 16 µg/mL (≈ 3.53 µM) and the “MIC P. aeruginosa MDR clinical isolate PEJ9.1” value [5] was 64 µg/mL (≈ 14.1 µM). The “MIC P. aeruginosa MDR clinical isolate ZEM1A” value [5] was 4 µg/mL (≈ 0.882 µM), the “MIC P. aeruginosa MDR clinical isolate ZEM9A” value [5] was 32 to 64 µg/mL and the “MIC (MH)” value (P. aeruginosa PA01 (WT)) was 4 µg/mL (≈ 0.882 µM). The “MIC PAO1” value (P. aeruginosa PA01 (WT)) was 4 µg/mL (≈ 0.882 µM), the “MIC PT1482 (A-)” value [6] was 4 µg/mL (≈ 0.882 µM) and the “MIC PT1485 (AB-)” value [6] was 4 µg/mL (≈ 0.882 µM).
With `CCCCCCCCCC(=O)NCCCC[C@H](NC(=O)[C@H](CC(C)C)NC(=O)[C@H](CCCCN)NC(=O)[C@H](CCCCNC(=O)[C@H](CC(C)C)NC(=O)[C@H](CCN)NC(=O)[C@H](CCCCNC(=O)[C@H](Cc1ccccc1)NC(=O)[C@@H](N)CCCNC(=N)N)NC(=O)[C@H](Cc1ccccc1)NC(=O)[C@@H](N)CCCNC(=N)N)NC(=O)[C@H](CC(C)C)NC(=O)[C@H](CCN)NC(=O)[C@H](CCCCNC(=O)[C@H](Cc1ccccc1)NC(=O)[C@@H](N)CCCNC(=N)N)NC(=O)[C@H](Cc1ccccc1)NC(=O)[C@@H](N)CCCNC(=N)N)C(N)=O` [TNS-124, (RF)4(KDabL)2(KKLK-CO(CH2)8CH3)] (I: H-RFK([Phe-Arg])[Dab]LKKLK(Decanoyl)-NH2 / II: H-RFK([Phe-Arg])[Dab]L; amide I:6-II:C; N-terminus assumed) the “MIC S. aureus COL” value [1] was 8 µg/mL (≈ 3.12 µM), the “MIC A. baumannii ATCC19606” value (Acinetobacter baumannii) was 8 to 16 µg/mL and the “MIC P. aeruginosa MDR clinical isolate PEJ2.6” value [5] was 8 µg/mL (≈ 3.12 µM). For the same compound, the “MIC P. aeruginosa MDR clinical isolate PEJ9.1” value [5] was 32 µg/mL (≈ 12.5 µM), the “MIC P. aeruginosa MDR clinical isolate ZEM1A” value [5] was 4 to 8 µg/mL and the “MIC P. aeruginosa MDR clinical isolate ZEM9A” value [5] was 16 to 32 µg/mL. For the same compound, the “MIC (MH)” value (P. aeruginosa PA01 (WT)) was 4 to 8 µg/mL, the “MIC PAO1” value (P. aeruginosa PA01 (WT)) was 8 µg/mL (≈ 3.12 µM) and the “MIC (MH + 30% human serum)” value (PAO1) was 16 to 32 µg/mL.
In the case of `CCCCCCCCCC(=O)NCCCC[C@H](NC(=O)[C@H](CC(C)C)NC(=O)[C@H](CCCCN)NC(=O)[C@H](CCCCNC(=O)[C@H](CC(C)C)NC(=O)[C@H](CCCCN)NC(=O)[C@H](CCCCNC(=O)[C@H](CC(C)C)NC(=O)[C@@H](N)CCCCN)NC(=O)[C@H](CC(C)C)NC(=O)[C@@H](N)CCCCN)NC(=O)[C@H](CC(C)C)NC(=O)[C@H](CCCCN)NC(=O)[C@H](CCCCNC(=O)[C@H](CC(C)C)NC(=O)[C@@H](N)CCCCN)NC(=O)[C@H](CC(C)C)NC(=O)[C@@H](N)CCCCN)C(N)=O` [Compound G2KLC10, (KL)4(KKL)2(KKL-CO(CH2)8CH3)] (I: H-KLK([Leu-Lys])KLKKLK(Decanoyl)-NH2 / II: H-KLK([Leu-Lys])KL; amide I:6-II:C; N-terminus assumed), the “MIC S. aureus COL” value [1] is reported as 64 µg/mL (≈ 27 µM), the “MIC A. baumannii ATCC19606” value (Acinetobacter baumannii) is reported as 16 µg/mL (≈ 6.74 µM) and the “MIC P. aeruginosa MDR clinical isolate PEJ2.6” value [5] is reported as 8 µg/mL (≈ 3.37 µM). The “MIC P. aeruginosa MDR clinical isolate PEJ9.1” value [5] was 64 µg/mL (≈ 27 µM), the “MIC P. aeruginosa MDR clinical isolate ZEM1A” value [5] was 4 µg/mL (≈ 1.69 µM) and the “MIC (MH)” value (P. aeruginosa PA01 (WT)) was 4 µg/mL (≈ 1.69 µM). For the same compound, the “MIC PAO1” value (P. aeruginosa PA01 (WT)) was 8 µg/mL (≈ 3.37 µM) and the “MIC (MH + 30% human serum)” value (PAO1) was 8 to 16 µg/mL.
With `CCCCCCCCCC(=O)NCCCC[C@H](NC(=O)[C@H](CC(C)C)NC(=O)[C@H](CCCCN)NC(=O)[C@H](CCCCNC(=O)[C@H](Cc1ccccc1)NC(=O)[C@H](CCN)NC(=O)[C@H](CCCCNC(=O)[C@H](CC(C)C)NC(=O)[C@@H](N)CCCN)NC(=O)[C@H](CC(C)C)NC(=O)[C@@H](N)CCCN)NC(=O)[C@H](Cc1ccccc1)NC(=O)[C@H](CCN)NC(=O)[C@H](CCCCNC(=O)[C@H](CC(C)C)NC(=O)[C@@H](N)CCCN)NC(=O)[C@H](CC(C)C)NC(=O)[C@@H](N)CCCN)C(N)=O` [TNS-123, (OrnL)4(KDabF)2(KKLK-CO(CH2)8CH3)] (I: H-[Orn]LK([Leu-Orn])[Dab]FKKLK(Decanoyl)-NH2 / II: H-[Orn]LK([Leu-Orn])[Dab]F; amide I:6-II:C; N-terminus assumed) the “MIC S. aureus COL” value [1] was 32 to 64 µg/mL, the “MIC A. baumannii ATCC19606” value (Acinetobacter baumannii) was 32 µg/mL (≈ 13.7 µM) and the “MIC P. aeruginosa MDR clinical isolate PEJ2.6” value [5] was 16 µg/mL (≈ 6.87 µM). For the same compound, the “MIC P. aeruginosa MDR clinical isolate PEJ9.1” value [5] was >64 µg/mL, the “MIC P. aeruginosa MDR clinical isolate ZEM1A” value [5] was 4 µg/mL (≈ 1.72 µM) and the “MIC P. aeruginosa MDR clinical isolate ZEM9A” value [5] was 8 µg/mL (≈ 3.43 µM). For the same compound, the “MIC (MH)” value (P. aeruginosa PA01 (WT)) was 2 µg/mL (≈ 0.859 µM), the “MIC PAO1” value (P. aeruginosa PA01 (WT)) was 4 to 8 µg/mL and the “MIC (MH + 30% human serum)” value (PAO1) was 8 to 16 µg/mL.
